A word on the kon: it is a measure of how fast the partners come together.

For this test, the target named is T1, Neutrophil elastase (Homo sapiens, UniProt P08246).
T1 sequence (P08246 whole entry): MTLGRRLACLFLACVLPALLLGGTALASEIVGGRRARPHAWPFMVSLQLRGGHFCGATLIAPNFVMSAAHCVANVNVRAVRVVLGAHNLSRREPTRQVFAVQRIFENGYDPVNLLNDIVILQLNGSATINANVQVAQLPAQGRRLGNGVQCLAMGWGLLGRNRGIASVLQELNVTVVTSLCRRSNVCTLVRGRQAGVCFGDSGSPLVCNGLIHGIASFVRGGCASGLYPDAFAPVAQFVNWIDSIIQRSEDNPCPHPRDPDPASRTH
Put plainly: Tested for the rate constant against Human Leukocyte Elastase (HLE) inactivation. Conditions: read-out: kon (M-1-s-1).

With `CO[C@H]1C(=O)N2C(C(=O)N3CCCC3C(=O)O)=C(COC(C)=O)CS(=O)(=O)[C@H]12` (stereo partly drawn) [1-(3-Acetoxymethyl-7-methoxy-5,5,8-trioxo-5lambda*6*-thia-1-aza-bicyclo[4.2.0]oct-2-ene-2-carbonyl)-pyrrolidine-2-carboxylic acid(L-658,758)], the kon came out at 1800 M⁻¹ s⁻¹.
